Experimental data: publication PMC9054876 (Cancer Chemotherapy and Pharmacology, 2022)

Assays:
clinical [1] = details: for CLpar: typical individual, 500 mg
Excerpt: This step included food status, formulation, and oral dose level.
In the second step, the remaining covariates were further evaluated, including demographics (age, body weight, race, and sex), patient characteristics (disease status, i.e., patient or healthy participant, tumor type, National Cancer Institute Organ Dysfunction Working Group [NCI-ODWG] classification of liver impairment, and baseline tumor burden), laboratory values (serum albumin, total bilirubin, alkaline phosphatase, international normalized ratio, and total protein), and co-medications (opioid analgesics and gefitinib).
SCM was applied in the structural covariate model building step, followed by an adaptive scope reduction (ASR) SCM in the following covariate searching step to reduce run times. For the SCM procedures, the forward selection p value was set to 0.01, and the backward elimination p value to 0.001. The ASR threshold p value was set to the same as the forward p value of 0.01.
Continuous covariate relationships were coded as power models (Formula 1), and categorical covariates were coded as a fractional difference to the most common category (Formula 2). An alternative ‘hockey-stick’ parameterization (Formula 3) was tested for dose as continuous covariate on bioavailability of the parent drug (Par).1 ParCovm=Cov/Covref^θm 2 ParCovm=1ifCov=Covref1+θmifCov≠Covref 3 ParCovm=1+θm1·Cov-CovrefifCov≤Covref1+θm2·Cov-CovrefifCov>Covref
Model selection and qualification was based on the changes in the objective function value (OFV) provided by NONMEM and the visual inspection of graphical diagnostics, including goodness-of-fit plots and visual predictive checks (VPCs).
The population PK analyses were performed using NONMEM version 7.3.0. Data management and further processing of NONMEM output were performed using R version 3.3.3. VPCs and covariate model building were run on PsN version 4.4.8.
The IIV terms are included on CLpar, first-order absorption rate constant (ka), zero-order absorption duration (D1), and bioavailability of parent drug (Fpar).

[2] = cited from earlier work
[3] = design: method as in PMID 32562690; details: cited from earlier work
[4] = design: method as in manuscript in preparation; details: 500 mg single dose TF2, non-compartmental analysis; ref manuscript in preparation; cited from earlier work
[5] = high-fat meal, healthy participants; cited from earlier work
[6] = cited from earlier work; remark: listed apart in the source
clinical [7] = details: human, in vivo, po
Excerpt: (§1) The association or lack of association between the observed covariates and model-derived secondary PK parameters [e.g., area under the concentration–time curve over the dosing interval at steady state (AUCτ,ss)] for patients with cancer was illustrated using bootstrap analysis-based forest plots (see ESM 1 for method details). In the bootstrap analysis, N = 100 new data sets were generated with replacement from the analysis data set. The sampling was stratified by study, and the final models were fit to each of the resampled data sets. […] For categorical covariates, the mean and its 5th and 95th percentiles of PK parameters for each category were computed. For continuous covariates, the mean and its 5th and 95th percentiles of PK parameters, corresponding to the 0–5th and 95–100th percentile of the covariate, were computed. The impact of the covariates in the forest plots were presented on a relative scale. The reference value was the arithmetic mean of the corresponding PK parameter.
(§2) The derivation of these secondary PK parameters is based on a bootstrap analysis (see following). Only participants with at least one observation above the lower limit of quantitation in the analysis data set were included in the derivation of the secondary parameters.
(§3) In the bootstrap analysis, N = 100 new data sets (with the participants in the analysis data sets with at least one observation with the same number of participants as in the analysis data sets) were drawn with replacement from the analysis data sets. The sampling was stratified by study. The final models were fit to each of the resampled data sets.
(§4) For each of the N = 100 population parameter vectors, the n observed covariate vectors were used to predict the corresponding n primary and secondary parameters, where n = the unique combination of ID and the time-varying variables formulation, μ-opioids and dose (while National Cancer Institute Organ Dysfunction Group (NCI-ODG) class was handled as a time-varying covariate in the stepwise covariate method (SCM), its baseline value was used in the derivation of the forest plots since NCI-ODG class is derived from total bilirubin, alanine aminotransferase and aspartate aminotransferase, which were also assumed to be time-constant in the forest plot).
(§5) Descriptive statistics (mean, standard deviation and the 5th and 95th percentiles) were calculated for the n secondary parameters. These summary statistics are the bootstrap estimates of the typical individual value, standard error, and 90% confidence interval of the secondary parameters.

[8] = oral, cited from earlier work
[9] = Bootstrap-derived secondary PK parameters, forest plots and model-based simulation
Excerpt: as §1, §2, §3, §4, §5

[10] = CF1 vs typical participant taking TF2 with a non-high-fat meal
[11] = fasting vs typical participant taking TF2 with a non-high-fat meal
[12] = final model, reference patient, multiplied by 0.9
[13] = fractional difference to reference category
[14] = bootstrap predicted, cancer patients
[15] = bootstrap predicted, cancer patients, 250 mg/day

Q: What does the source list for `CN1CCC(COc2cnc(-c3cccc(Cn4nc(-c5cccc(C#N)c5)ccc4=O)c3)nc2)CC1` [Tepotinib]?
A: CF1 covariate on ka (clinical [1]; CF1 vs TF2): –0.442; reduction of Fpar (clinical [1]; [10]): 65.6%; reduction of ka (clinical [1]; [10]): 44.2%; TF1* covariate on ka (clinical [1]; TF1* (finely micronized) vs TF2): 0.674; TF1 covariate on ka (clinical [1]; TF1 vs TF2): 0.305; TF3 covariate on Fpar (clinical [1]; TF3 vs TF2): 0.154; CF1 covariate on Fpar (clinical [1]; capsule formulation 1 (non-micronized) vs TF2): –0.656; influence of gefitinib co-administration on tepotinib PK (clinical [1]; covariate analysis): No statistically significant influence; reduction of Fpar (clinical [1]; [11]): 20.9%; reduction of ka (clinical [1]; [11]): 56.1%; DOSE covariate on Fpar (clinical [1]; final model): –0.0412 /100 mg; D1 (zero-order absorption duration) (clinical [1]; final model, reference patient): 4.09 h; CLpar/F (apparent clearance) (clinical [1]; final model, reference patient, 500 mg TF2, fed non-high-fat meal, multiplied by 0.9 for salt to base): 20.4 L/h; ka (first-order absorption rate constant) (clinical [1]; final model, reference patient, TF2, fed non-high-fat meal): 0.278 h⁻¹; Qpar/F (clinical [1]; [12]): 1.32 L/h; Vp,par/F (clinical [1]; [12]): 1180 L; Vc,par/F (clinical [1]; final model, reference patient, multiplied by 0.9 for salt to base): 1020 L; Colorectal cancer covariate on CLpar/F (clinical [1]; fractional difference): –0.281; Hepatocellular carcinoma covariate on CLpar/F (clinical [1]; fractional difference): 0.130; NCI-ODG class > 0 covariate on Fpar (clinical [1]; fractional difference): –0.0729; Non-small cell lung cancer covariate on Vc,par/F (clinical [1]; fractional difference): –0.232; Patient/participant covariate on Vp,par/F (clinical [1]; fractional difference): –0.810; Study MS200095-0028 covariate on CLpar/F (clinical [1]; fractional difference): –0.115; μ-Opioids covariate on CLpar/F (clinical [1]; fractional difference): –0.167; Fasting state covariate on D1 (clinical [1]; [13]): –0.370; Fasting state covariate on Fpar (clinical [1]; [13]): –0.209; Fasting state covariate on ka (clinical [1]; [13]): –0.561; High-fat meal covariate on Fpar (clinical [1]; [13]): 0.320; half-life (clinical [1]; human, in vivo): ~32 h; exposure increase between 500 and 1400 mg (clinical [1]; mostly CF2, Study 001): doubling; reduction of bioavailability by liver dysfunction (NCI-ODWG) (clinical [1]; oral administration): 7.29%; Age covariate on Vc,par/F (clinical [1]; power model): 0.219; Body weight at baseline covariate on Fpar (clinical [1]; power model): –0.475; INR at baseline covariate on Qpar/F (clinical [1]; power model): 3.81; Serum albumin at baseline covariate on Qpar/F (clinical [1]; power model): 4.14; eGFR at baseline covariate on CLpar/F (clinical [1]; power model): 0.199; time dependence of PK (clinical [1]; single dose vs steady state): time-independent; CLpar (clinical [1]; eGFR 30 mL/min/1.73 m^2): 16.2 L/h; CLpar (clinical [1]; eGFR 60 mL/min/1.73 m^2): 18.6 L/h; CLpar (clinical [1]; eGFR 80 mL/min/1.73 m^2): 19.7 L/h; CLpar (clinical [1]; eGFR 110 mL/min/1.73 m^2): 20.9 L/h; dose proportionality of PK (clinical [1]; up to the therapeutic dose of 500 mg): approximately dose-proportional; share of administered dose of any single metabolic pathway ([2]; based on in vitro studies and human mass balance data): ≤ 25%; absolute bioavailability [2]: 72%; contribution to total circulating radioactivity [2]: 55%; total radiolabeled material excreted via feces ([2]; mass balance study): 77.9%; urinary excretion recovery ([2]; mass balance study): 13.6%; solubility [3]: low-solubility; total plasma AUC lower in moderate hepatic impairment than healthy participants [4]: 13%; increase in tepotinib exposure in the presence of food [5]: two-fold; effect of co-administration of tepotinib with gefitinib on exposure [6]: no effect; AUC (clinical [7]; 250 mg/day): 12300 ng·h/mL; half-life (clinical [7]; 500 mg): 102 h; AUC (clinical [7]; 500 mg/day): 22300 ng·h/mL; Cmax (clinical [7]; 500 mg/day): 1240 ng/mL; time to maximum concentration (Tmax) ([8]; steady state, fed conditions): approximately 8 h; terminal elimination half-life [8]: approximately 32 h; CLpar, mean ([9]; bootstrap predicted typical individual, cancer patients, multiplied by 0.9): 19.3 L/h; Fpar actual doses, mean [9, 14]: 1.12; Tss (time to steady-state), mean [9, 14]: 128.3 h; t1/2eff (effective half-life), mean [9, 14]: 32.1 h; Fpar 250 mg, mean ([9]; bootstrap predicted, cancer patients, 250 mg): 1.04; C max, ss 250 mg, mean [9, 15]: 683 ng/mL; Ctrough,ss 250 mg, mean [9, 15]: 523 ng/mL; Fpar 500 mg, mean ([9]; bootstrap predicted, cancer patients, 500 mg): 0.94; Ctrough,ss 500 mg, mean ([9]; bootstrap predicted, cancer patients, 500 mg/day): 952 ng/mL; Vss, mean ([9]; bootstrap predicted, cancer patients, multiplied by 0.9): 2,091 L; AUCτ,ss higher in moderate renal impairment ([9]; eGFR 39.4-59 vs mean observed eGFR 99.8 mL/min/1.73 m^2, forest plot): 2%; effect of covariates on tepotinib AUC ([9]; race, hepatic impairment, renal impairment, age, sex, body weight, opioid analgesics or gefitinib, 90% CIs within 80–125%): no or marginal effects

Q: Which “effect of co-administration of tepotinib with gefitinib on exposure” value [6] does the source give for `COc1cc2ncnc(Nc3ccc(F)c(Cl)c3)c2cc1OCCCN1CCOCC1` [gefitinib, reference compound] here?
A: no effect
